# Assay results from patent US20230085549A1 (Janssen Pharmaceutica NV, priority 2021, published 2023).
# Read-outs that look alike come from different tables or passages of the source.
# What was measured:
# Juvenile dogs = experiment: Juvenile dog study with oral risperidone, 40 weeks
# Beagle dogs = experiment: Subchronic study in Beagle dogs with risperidone; assay type: in vivo; conditions: all doses tested ([…]-5.0 mg/kg)
# Excerpt: (§1) Serum testosterone and sperm parameters partially recovered, but remained decreased after the last observation (two months after treatment was discontinued).
# [1] = test system: pregnant mice, rats and rabbits; experiment: Reproduction toxicity studies with orally administered risperidone; assay type: in vivo
# Excerpt: Increased neuronal cell death occurred in the fetal brains of the offspring of pregnant rats treated at 0.5 to 1.2 times the MRHD; the postnatal development and growth of the offspring was delayed.
# [2] = Solubility in solvents and water; assay type: physicochemical
# mouse lymphoma = experiment: Mouse lymphoma assay; assay type: cell-based
# bacteria = experiment: In vitro Ames bacterial reverse mutation test; assay type: cell-based
# Plasma protein binding = assay type: in vitro ADME; conditions: racemic
# [3] = human, in vivo, po
# Excerpt: Observed signs and symptoms included extrapyramidal symptoms and gait unsteadiness.
# P-glycoprotein (P-gp) = P-glycoprotein (P-gp) (Homo sapiens, UniProt P08183); experiment: P-gp substrate and inhibition studies in vitro; assay type: in vitro ADME
# serotonin 5HT2A receptor = serotonin 5HT2A receptor (Homo sapiens, UniProt P28223); experiment: biochemical
# [4] = molecular target: central Dopamine type 2 (D2) receptor (Homo sapiens, UniProt P14416); conditions: at paliperidone plasma concentration 7.5 ng/mL; cited from earlier work
# rats = experiment: Oral paliperidone study of fertility in rats; assay type: in vivo
# Procedure: These parameters were not affected at an oral dose of 0.63 mg/kg, which is half of the oral MRHD of 12 mg based on mg/m^2 body surface area.
# as §1
# β1-adrenergic receptor = β1-adrenergic receptor (Homo sapiens, UniProt P08588); experiment: In vitro receptor binding affinity
# [5] = Drug interaction studies with oral paliperidone; assay type: in vivo, human
# Excerpt: Higher doses of paroxetine have not been studied.
# This interaction has not been studied with INVEGA HAFYERA.
# α2 adrenergic receptor = experiment: In vitro receptor binding affinity; conditions: antagonist
# β2-adrenergic receptor = β2-adrenergic receptor (Homo sapiens, UniProt P07550); experiment: In vitro receptor binding affinity
# rat bone marrow = experiment: In vivo rat bone marrow micronucleus test
# [6] = test system: cholinergic muscarinic receptors; experiment: In vitro receptor binding affinity
# α1 adrenergic receptor = experiment: In vitro receptor binding affinity; conditions: antagonist
# [7] = test system: CYP1A2, CYP2A6, CYP2C9, and CYP2C19; experiment: CYP substrate studies in vitro; assay type: in vitro ADME, human
# [8] = molecular target: central dopamine D2 receptor (Homo sapiens, UniProt P14416); experiment: In vitro receptor binding affinity; conditions: antagonist
# [9] = test system: cytochrome P450 isozymes, including CYP1A2, CYP2A6, CYP2C8/9/10, CYP2D6, CYP2E1, CYP3A4, and CYP3A5; experiment: Inhibition of drug metabolism in human liver microsomes; assay type: in vitro ADME
# juvenile rats = experiment: Juvenile rat study with oral paliperidone; assay type: in vivo
# [10] = test system: pregnant rats and rabbits; experiment: Animal reproduction studies, oral paliperidone during organogenesis; assay type: in vivo; conditions: period of organogenesis, mg/m^2
# [11] = Study with oral immediate-release 14C-paliperidone (excretion, metabolism); assay type: in vivo
# [12] = Pharmacokinetics in specific populations (oral paliperidone studies, population PK modelling); assay type: in vivo, human; conditions: elderly subjects
# Excerpt: No specific pharmacokinetic studies have been performed with […] in specific populations. All the information is obtained from studies with oral paliperidone or is based on the population pharmacokinetic modelling of oral paliperidone and […].
# clinical = conditions: human, in vivo, po, 4 mg
# Sequence of P-glycoprotein (P-gp) (P08183 whole entry): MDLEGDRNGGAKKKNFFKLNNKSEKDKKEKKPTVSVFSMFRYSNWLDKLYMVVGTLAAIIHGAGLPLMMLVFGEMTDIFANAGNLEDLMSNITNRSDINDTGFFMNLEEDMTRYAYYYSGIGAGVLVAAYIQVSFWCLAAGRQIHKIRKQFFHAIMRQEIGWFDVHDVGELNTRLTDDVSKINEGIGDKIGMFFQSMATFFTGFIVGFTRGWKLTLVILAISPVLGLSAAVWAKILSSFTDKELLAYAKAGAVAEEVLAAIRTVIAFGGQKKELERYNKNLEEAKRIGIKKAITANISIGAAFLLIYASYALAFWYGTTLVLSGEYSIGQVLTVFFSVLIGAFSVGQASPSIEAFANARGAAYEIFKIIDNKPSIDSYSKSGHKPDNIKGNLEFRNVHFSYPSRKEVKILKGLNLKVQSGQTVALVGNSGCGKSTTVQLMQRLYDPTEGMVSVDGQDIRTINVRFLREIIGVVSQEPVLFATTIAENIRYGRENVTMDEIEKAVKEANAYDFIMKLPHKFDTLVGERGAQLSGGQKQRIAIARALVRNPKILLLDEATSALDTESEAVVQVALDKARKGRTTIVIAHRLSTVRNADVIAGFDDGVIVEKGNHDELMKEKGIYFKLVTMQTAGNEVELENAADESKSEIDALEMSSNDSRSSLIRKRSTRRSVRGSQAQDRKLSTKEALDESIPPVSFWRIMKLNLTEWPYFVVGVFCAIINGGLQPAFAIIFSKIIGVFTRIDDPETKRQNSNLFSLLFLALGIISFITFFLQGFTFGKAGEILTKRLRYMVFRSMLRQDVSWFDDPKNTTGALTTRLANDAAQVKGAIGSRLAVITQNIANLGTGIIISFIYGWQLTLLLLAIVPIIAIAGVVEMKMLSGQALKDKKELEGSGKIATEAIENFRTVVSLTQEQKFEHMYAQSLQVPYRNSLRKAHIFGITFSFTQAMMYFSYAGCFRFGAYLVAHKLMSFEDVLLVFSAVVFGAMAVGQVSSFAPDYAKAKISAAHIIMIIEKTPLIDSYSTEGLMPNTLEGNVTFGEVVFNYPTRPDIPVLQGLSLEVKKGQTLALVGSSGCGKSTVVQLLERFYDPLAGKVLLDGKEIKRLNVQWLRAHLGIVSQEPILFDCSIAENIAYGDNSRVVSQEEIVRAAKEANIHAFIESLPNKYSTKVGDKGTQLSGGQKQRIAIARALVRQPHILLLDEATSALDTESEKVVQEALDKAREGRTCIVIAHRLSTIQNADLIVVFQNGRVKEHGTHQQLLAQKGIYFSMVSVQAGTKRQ
# Sequence of β2-adrenergic receptor (P07550 whole entry): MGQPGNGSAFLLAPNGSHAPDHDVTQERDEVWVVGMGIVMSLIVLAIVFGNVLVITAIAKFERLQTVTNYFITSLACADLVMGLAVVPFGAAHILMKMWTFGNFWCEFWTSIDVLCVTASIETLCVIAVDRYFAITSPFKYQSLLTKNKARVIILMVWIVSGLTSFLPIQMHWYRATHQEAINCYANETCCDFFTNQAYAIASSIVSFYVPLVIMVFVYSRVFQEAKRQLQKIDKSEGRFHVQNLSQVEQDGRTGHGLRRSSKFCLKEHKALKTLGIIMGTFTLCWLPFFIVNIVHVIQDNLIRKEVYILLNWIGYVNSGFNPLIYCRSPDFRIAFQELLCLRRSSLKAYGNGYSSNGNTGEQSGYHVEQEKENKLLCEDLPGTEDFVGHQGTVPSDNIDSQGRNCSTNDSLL
# Sequence of serotonin 5HT2A receptor (P28223 whole entry): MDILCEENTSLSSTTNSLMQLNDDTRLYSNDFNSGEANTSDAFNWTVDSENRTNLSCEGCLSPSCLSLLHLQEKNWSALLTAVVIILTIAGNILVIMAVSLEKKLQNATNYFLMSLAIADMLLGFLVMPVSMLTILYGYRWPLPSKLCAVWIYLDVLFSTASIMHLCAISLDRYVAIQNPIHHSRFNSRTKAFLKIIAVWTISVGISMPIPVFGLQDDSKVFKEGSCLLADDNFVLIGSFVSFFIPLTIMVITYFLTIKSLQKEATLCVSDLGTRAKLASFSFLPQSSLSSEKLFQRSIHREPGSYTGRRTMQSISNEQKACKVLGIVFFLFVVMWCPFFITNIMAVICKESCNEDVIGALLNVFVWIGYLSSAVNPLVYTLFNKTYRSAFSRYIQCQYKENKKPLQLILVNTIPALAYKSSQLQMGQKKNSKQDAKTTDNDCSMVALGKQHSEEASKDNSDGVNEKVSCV
# Sequence of central dopamine D2 receptor (P14416 whole entry): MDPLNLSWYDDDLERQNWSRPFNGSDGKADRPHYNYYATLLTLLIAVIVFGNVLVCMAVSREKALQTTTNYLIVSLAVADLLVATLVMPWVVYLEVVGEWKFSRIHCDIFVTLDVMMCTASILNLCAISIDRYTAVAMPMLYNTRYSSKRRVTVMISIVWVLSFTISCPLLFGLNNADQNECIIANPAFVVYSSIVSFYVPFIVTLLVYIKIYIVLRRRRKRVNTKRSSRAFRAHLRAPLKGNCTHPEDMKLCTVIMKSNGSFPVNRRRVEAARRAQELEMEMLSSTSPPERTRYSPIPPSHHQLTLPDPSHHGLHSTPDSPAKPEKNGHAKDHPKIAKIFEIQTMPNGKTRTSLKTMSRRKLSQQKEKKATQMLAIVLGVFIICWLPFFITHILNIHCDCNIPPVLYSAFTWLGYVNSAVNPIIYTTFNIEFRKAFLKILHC
# Sequence of central Dopamine type 2 (D2) receptor (P14416 whole entry): as above
# Sequence of β1-adrenergic receptor (P08588 whole entry): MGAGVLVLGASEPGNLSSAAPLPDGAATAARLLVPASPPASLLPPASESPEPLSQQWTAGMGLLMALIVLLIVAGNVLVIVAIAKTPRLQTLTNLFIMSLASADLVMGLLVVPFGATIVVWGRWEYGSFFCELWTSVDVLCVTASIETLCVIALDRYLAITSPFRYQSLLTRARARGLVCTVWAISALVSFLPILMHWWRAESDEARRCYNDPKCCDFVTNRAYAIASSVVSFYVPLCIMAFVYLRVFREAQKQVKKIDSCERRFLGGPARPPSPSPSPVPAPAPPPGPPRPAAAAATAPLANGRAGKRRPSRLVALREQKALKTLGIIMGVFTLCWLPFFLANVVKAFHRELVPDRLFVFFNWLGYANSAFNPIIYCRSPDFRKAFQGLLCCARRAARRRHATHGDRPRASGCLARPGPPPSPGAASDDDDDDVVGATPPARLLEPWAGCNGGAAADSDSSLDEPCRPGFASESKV
smiles,measurement,setting,value
Cc1nc2n(c(=O)c1CCN1CCC(c3noc4cc(F)ccc34)CC1)CCCC2 [risperidone],no-effect dose for decreased bone length and density,Juvenile dogs,0.31 mg/kg/day
same,effect on serum testosterone and sperm,Beagle dogs,decreases in serum testosterone and in sperm motility and concentration
same,maternal toxicity,[1]; pregnant mice,4 times the MRHD
same,learning impaired in adult offspring,[1]; pregnant rats,0.6 times the MRHD
same,oral doses at which pup deaths occurred,"[1]; rat reproduction studies, mg/m^2",less than the MRHD
same,doses with no evidence of teratogenicity,"[1]; rats and rabbits, embryo-fetal developmental toxicity",up to 6 times the MRHD of 16 mg/day
"CCCCCCCCCCCCCCCC(=O)OC1CCCn2c1nc(C)c(CCN1CCC(c3noc4cc(F)ccc34)CC1)c2=O (racemic) [paliperidone palmitate, (±)-3-[2-[4-(6-fluoro-1,2-benzisoxazol-3-yl)-1-piperidinyl]ethyl]-6,7,8,9-tetrahydro-2-methyl-4-oxo-4H-pyrido[1,2-c]pyrimidin-9-yl hexadecanoate]",solubility in ethanol and methanol,[2],very slightly soluble
same,solubility in ethyl acetate,[2],slightly soluble
same,solubility in polyethylene glycol 400 and propylene glycol,[2],practically insoluble
same,water solubility,[2],extreme low water solubility
same,genotoxicity,mouse lymphoma,no genotoxicity
same,genotoxicity,bacteria,no genotoxicity
Cc1nc2n(c(=O)c1CCN1CCC(c3noc4cc(F)ccc34)CC1)CCCC2O (stereo not drawn) [paliperidone],fraction unbound,Plasma protein binding,0.26
same,highest estimated ingestion in overdose,[3],405 mg
same,P-gp inhibition,P-glycoprotein (P-gp); at high concentrations,weak inhibitor
same,P-gp substrate,P-glycoprotein (P-gp); in vitro,substrate of P-glycoprotein (P-gp)
same,Ki,serotonin 5HT2A receptor,0.8 to 1.2 nM
same,central D2 receptor occupancy,[4],60%
same,oral doses at which percentage of treated female rats that became pregnant was not affected,rats; 2 times the oral MRHD of 12 mg,up to 2.5 mg/kg/day
same,dose with increased pre- and post-implantation loss and slightly decreased live embryos,"rats; female, rat, in vivo, po",2.5 mg/kg
same,oral dose at which these parameters were not affected,rats; half of the oral MRHD of 12 mg,0.63 mg/kg
same,oral doses at which fertility of male rats was not affected,rats; mg/m^2,up to 2 times the oral MRHD of 12 mg/day
same,affinity,β1-adrenergic receptor,no appreciable affinity
same,increase in Cmax and AUC of paliperidone,[5]; single 12 mg extended-release tablet with divalproex sodium ER two 500 mg tablets once daily,approximately 50%
same,increase in renal clearance of paliperidone,[5]; with carbamazepine,35%
same,change in mean Cmax and AUC at steady-state,[5]; with paroxetine 20 mg/day oral,increase in mean Cmax and AUC values
same,Ki,α2 adrenergic receptor,17 nM
same,affinity,β2-adrenergic receptor,no appreciable affinity
same,genotoxicity,rat bone marrow,not genotoxic
same,affinity,[6],no appreciable affinity
same,Ki,α1 adrenergic receptor,4 nM
same,substrate of CYP isozymes,[7],not a substrate for CYP1A2
same,substrate of CYP isozymes,[7]; listed as Paliperidone,not a substrate
same,Ki,[8],1.6 to 2.8 nM
same,inhibition of metabolism of drugs metabolized by cytochrome P450 isozymes,[9],does not substantially inhibit
same,no-effect dose for reversible impairment of learning and memory,"juvenile rats; females only, oral, days 24 to 73 of age",0.63 mg/kg/day
same,doses without other consistent effects on neurobehavioral or reproductive development,juvenile rats; highest dose tested,≤ 2.5 mg/kg/day
same,genotoxicity,mouse lymphoma,not genotoxic
same,exposure without increases in fetal abnormalities,[10],up to 8 times the oral MRHD of 12 mg
same,genotoxicity,bacteria,not genotoxic
same,dose excreted unchanged into urine,[11]; one week after single oral dose of 1 mg,59%
same,administered radioactivity recovered in the feces,[11]; single oral dose of 1 mg,11%
same,administered radioactivity recovered in urine,[11]; single oral dose of 1 mg,Approximately 80%
same,increase of Cmax and AUC compared to young subjects,[12],1.2 fold
same,Cmax,clinical,35 ng/mL
